In patent US20220133747A1, “ESTROGEN RECEPTOR INHIBITORS AND USES THEROF” (The Regents of the University of California, priority 2018, published 2022):
“Also recorded” adds a separate entry of the source.

What was measured:
[1] = tested on: myeloid-derived suppressor cells (MDSC); assay: Expansion of human MDSC from bone marrow of BC patients, flow cytometry; format: cell-based; settings: 1 μM in normal medium with GM-CSF and IL-6, 5-6 days
Excerpt: Bone Marrow cells from three breast cancer patients were purified by established methods including red blood cell lysis and Ficoll gradients (1-3,5, 5-7) and then cultured in the presence of IL-6 and GM-CSF in either estrogen-free medium (EFM), normal medium with control vehicle (NM) (which contains estrogens), normal medium with 1-μM fulvestrant (NM+FULV) or normal medium with 1-μM S128 (NM+S128). After 5 days, myeloid-derived cell populations were then identified by following the gating strategy of Ruffell et al. (2) as modified by Svoronos et al. (1). A) Percentage of total MDSC within CD45^+ population.
Total number of human MDSC derived from bone marrow (BM) of three of three BC patients (P<0.05). Cells were incubated in the presence of GM-CSF and IL-6 for 6 days in either regular RPMI medium+15% FBS (NM) (contains estrogens) or in phenol red-free medium with 15% charcoal coated-dextran treated FBS (EFM)(estrogen-depleted) with or without the addition of 100 nM estradiol-17β (EFM+E2). Normal cell culture medium (NM) drives E2-dependent signaling due to the presence of various estrogens in FBS as well as the estrogenic properties of phenol red. These effects were inhibited by the SERDs fulvestrant (FULV) and S128 at 1 μM
FIGS. 22A-22B show expansion of MDSCs is dependent on estrogen signaling and reversed by antiestrogens. […]
Human myeloid-derived suppressor cells were expanded from bone marrow (BM) specimens of BC patients after standard Ficoll gradient purification and red blood cell lysis. […] After 6 days of culture, cells were harvested, stained with a 14 antibody panel including anti-phospho-STAT3 (pSTAT3) and analyzed by flow cytometry with an LSRII with a 5 lasers (UV, violet, blue, green-yellow and red). […]

[2] = tested on: 4T1 tumors; assay: 4T1 tumor progression in syngeneic BALB/c mice; format: in vivo; settings: SERD128 50 mg/kg oral gavage, fulvestrant 5 mg/mouse subcutaneous once a week, anti-PD-L1 100 μg every third day, 10-12 days
Method: Ovariec-tomized 6-wk-old female BALC/c mice supplemented with E2 pellets (0.36 mg/60 day release pellet) were implanted SC with 2.5×10^5 4T1 cells. After tumors reached approx. 200 mm3, mice were randomized and treated with control vehicle (CON), 100 μg of anti-PD-L1 (antibody clone 10F.9G2, BioXCell) Q3 days (PD-L1), 50 mg/kg SERD128 by oral gavage (SERD128) or combined antibody+SERD (PD-L1+SERD128). Tumors were measured Q3 days, with tumor volume calculated as V=(W(2)×L)/2), with mean+SE (*P<0.05, **P<0.01 vs CON).
FIGS. 23A-23C show estrogen effects on ERα negative tumor growth in vitro and in vivo. […] Female 6-wk-old BALB/c mice, either ovariectomized (ovx) or sham-operated (intact), were inoculated s.c. with 2×10^5 4T1 TNBC cells. Tumor growth was then assessed every 3 days, with tumor volume calculated as V=(l×w×w)/2. ****P≤0.0001. […] 4T1 cells were grown in the presence (+E2) or absence (−E2) of estradiol-17β and increasing concentrations of SERD128 at 10 nM (128-10), 100 nM (128-100) or 1000 nM (128-1000). Cell proliferation was assessed using the Incucyte S3 Live-Cell Analysis system with pictures obtained every 4-6 hours. […] Ovariectomized 6-week-old female syngeneic BALB/c mice were primed with estradiol-17β slow-release pellets prior to tumor cell inoculation. After three days, 4T1 cells were injected in the 4th mammary fat pad (2×10^5 cells). After tumors reached ˜200 mm^3 mice were randomized and treated with control vehicle (CON), […] of anti-PD-L1 antibody every 3rd day (PD-L1 Ab), 50 mg/kg SERD128 via oral gavage (SERD128), and combinations of antibody and SERD128 (SERD128+PD-L1 Ab). Tumors were measured every 3 days, and tumor volume was calculated as V=(W(2)×L)/2). **P<0,01, ****P<0.0001 as compared to control group. n=11-12.
In further studies to determine the effects of antiestrogen treatment alone or in combination with anti-PD-L1 antibody on murine tumor progression in vivo, ovariectomized 6-week-old female syngeneic BALB/c mice were used (Jackson Laboratory). […] Tumors were measured every 3-4 days, and tumor volume was calculated as above. […]

## C[C@]12CC[C@@H]3c4ccc(O)cc4C[C@@H](CCCCCCCCC[S+]([O-])CCCC(F)(F)C(F)(F)F)[C@H]3[C@@H]1CC[C@@H]2O (stereo partly drawn) [fulvestrant, reference compound]
[1]
  total MDSC numbers (expansion of MDSC): substantially decreased; also recorded: significantly inhibited; also recorded: block E2-induced expansion of MDSCs
[2]
  4T1 tumor progression (tumor volume): effective in inhibition of 4T1 tumor growth in vivo

## C[C@]12C[C@H](Oc3ccc(N)c(C(F)(F)F)c3)[C@@H]3c4ccc(O)cc4CC[C@H]3[C@@H]1CC[C@@H]2O [SERD128, (8S,9S,11S,13S,14S,17S)-11-(4-Amino-3-(trifluoromethyl)phenoxy)-13-methyl-7,8,9,11,12,13,14,15,16,17-decahydro-6H-cyclopenta[a]phenanthrene-3,17-diol]
[1]
  total MDSC numbers (expansion of MDSC): significantly inhibited; also recorded: inhibits expansion and activation; also recorded: block E2-induced expansion of MDSCs; also recorded: exceeds that of fulvestrant at equivalent doses
[1]; listed as S128
  total MDSC numbers (expansion of MDSC): substantially decreased; also recorded: inhibited; also recorded: inhibits E2-induced expansion of MDSC
[2]; 50 mg/kg
  4T1 tumor progression (tumor volume): inhibits breast cancer growth in vivo; also recorded: effective in inhibition of 4T1 tumor growth in vivo; also recorded: significant suppression of 4T1 tumor progression in vivo
[2]; listed as S128
  4T1 tumor progression (tumor volume): elicits inhibition of 4T1 TNBC progression in vivo
